Assay results: the NIST ThermoML archive (doi:10.1021/je300692s)
± gives the expanded uncertainty stated by the source.

Experiment: activity coefficient (dimensionless); of the first substance listed, at infinite dilution; xn = mol fraction of the nth substance listed
Conditions: 101 kPa, Liquid, Chromatography, x1 = 0

Cc1cccc(C)c1 [1,3-dimethylbenzene] + CCCCCCCCCC[N+]1(C)CCCC1.O=S(=O)([N-]S(=O)(=O)C(F)(F)F)C(F)(F)F
activity coefficient (322.6 K): 0.99 ± 0.1 | activity coefficient (332.5 K): 1 ± 0.1 | activity coefficient (342.8 K): 1.03 ± 0.1

CC1CCCCC1 [methylcyclohexane] + CCCCCCCC[N+]1(C)CCCC1.O=S(=O)([N-]S(=O)(=O)C(F)(F)F)C(F)(F)F
activity coefficient (323 K): 4.22 ± 0.44 | activity coefficient (333 K): 4.04 ± 0.42 | activity coefficient (343.1 K): 3.9 ± 0.41

CC(C)CO [2-methyl-1-propanol] + CCCCCCCCCC[N+]1(C)CCCC1.O=S(=O)([N-]S(=O)(=O)C(F)(F)F)C(F)(F)F
activity coefficient (322.6 K): 1.7 ± 0.18 | activity coefficient (332.5 K): 1.53 ± 0.16 | activity coefficient (342.8 K): 1.39 ± 0.14

CCCCCCCCCCC [undecane] + CCCCCC[N+]1(C)CCCC1.O=S(=O)([N-]S(=O)(=O)C(F)(F)F)C(F)(F)F
activity coefficient (322.9 K): 34.4 ± 3.6 | activity coefficient (333 K): 31 ± 3.3 | activity coefficient (343.1 K): 30.1 ± 3.2

Cc1ccc(C)cc1 [1,4-dimethylbenzene] + CCCCCCCC[N+]1(C)CCCC1.O=S(=O)([N-]S(=O)(=O)C(F)(F)F)C(F)(F)F
activity coefficient (323 K): 1.01 ± 0.1 | activity coefficient (333 K): 0.99 ± 0.1 | activity coefficient (343.1 K): 1.05 ± 0.11

C#CCCCC [1-hexyne] + CCCCCC[N+]1(C)CCCC1.O=S(=O)([N-]S(=O)(=O)C(F)(F)F)C(F)(F)F
activity coefficient (322.9 K): 2.1 ± 0.22 | activity coefficient (333 K): 2.1 ± 0.22 | activity coefficient (343.1 K): 2.09 ± 0.22

CCC(C)CC [3-methylpentane] + CCCCCCCC[N+]1(C)CCCC1.O=S(=O)([N-]S(=O)(=O)C(F)(F)F)C(F)(F)F
activity coefficient (323 K): 4.61 ± 0.48 | activity coefficient (333 K): 4.52 ± 0.47 | activity coefficient (343.1 K): 4.08 ± 0.43

ClCCl [dichloromethane] + CCCCCCCCCC[N+]1(C)CCCC1.O=S(=O)([N-]S(=O)(=O)C(F)(F)F)C(F)(F)F
activity coefficient (322.6 K): 0.27 ± 0.04 | activity coefficient (332.5 K): 0.3 ± 0.04 | activity coefficient (342.8 K): 0.3 ± 0.04

CCCCCCCCCC [decane] + CCCCCCCCCC[N+]1(C)CCCC1.O=S(=O)([N-]S(=O)(=O)C(F)(F)F)C(F)(F)F
activity coefficient (322.6 K): 9.42 ± 0.99 | activity coefficient (332.5 K): 9.05 ± 0.95 | activity coefficient (342.8 K): 8.7 ± 0.91

C[N+](=O)[O-] [nitromethane] + CCCCCCCC[N+]1(C)CCCC1.O=S(=O)([N-]S(=O)(=O)C(F)(F)F)C(F)(F)F
activity coefficient (323 K): 0.54 ± 0.06 | activity coefficient (333 K): 0.51 ± 0.06 | activity coefficient (343.1 K): 0.48 ± 0.05

ClC(Cl)Cl [trichloromethane] + CCCCCC[N+]1(C)CCCC1.O=S(=O)([N-]S(=O)(=O)C(F)(F)F)C(F)(F)F
activity coefficient (322.9 K): 0.68 ± 0.07 | activity coefficient (333 K): 0.72 ± 0.08 | activity coefficient (343.1 K): 0.74 ± 0.08

CCCCCCCC [octane] + CCCCCCCC[N+]1(C)CCCC1.O=S(=O)([N-]S(=O)(=O)C(F)(F)F)C(F)(F)F
activity coefficient (323 K): 8.1 ± 0.85 | activity coefficient (333 K): 7.8 ± 0.82 | activity coefficient (343.1 K): 6.54 ± 0.69

ClC(Cl)(Cl)Cl [tetrachloromethane] + CCCCCC[N+]1(C)CCCC1.O=S(=O)([N-]S(=O)(=O)C(F)(F)F)C(F)(F)F
activity coefficient (322.9 K): 1.78 ± 0.19 | activity coefficient (333 K): 1.85 ± 0.19 | activity coefficient (343.1 K): 1.86 ± 0.19

C1CCCCCC1 [cycloheptane] + CCCCCCCCCC[N+]1(C)CCCC1.O=S(=O)([N-]S(=O)(=O)C(F)(F)F)C(F)(F)F
activity coefficient (322.6 K): 7 ± 0.74 | activity coefficient (332.5 K): 9.72 ± 1 | activity coefficient (342.8 K): 13.3 ± 1.4

c1ccsc1 [thiophene] + CCCCCC[N+]1(C)CCCC1.O=S(=O)([N-]S(=O)(=O)C(F)(F)F)C(F)(F)F
activity coefficient (322.9 K): 0.7 ± 0.07 | activity coefficient (333 K): 0.71 ± 0.07 | activity coefficient (343.1 K): 0.72 ± 0.08

CCOCC [diethyl ether] + CCCCCCCCCC[N+]1(C)CCCC1.O=S(=O)([N-]S(=O)(=O)C(F)(F)F)C(F)(F)F
activity coefficient (322.6 K): 1.27 ± 0.13 | activity coefficient (332.5 K): 1.25 ± 0.13 | activity coefficient (342.8 K): 1.25 ± 0.13

CCCC(C)=O [pentan-2-one] + CCCCCC[N+]1(C)CCCC1.O=S(=O)([N-]S(=O)(=O)C(F)(F)F)C(F)(F)F
activity coefficient (322.9 K): 0.59 ± 0.06 | activity coefficient (333 K): 0.65 ± 0.07 | activity coefficient (343.1 K): 0.66 ± 0.07

CCCO [propan-1-ol] + CCCCCCCCCC[N+]1(C)CCCC1.O=S(=O)([N-]S(=O)(=O)C(F)(F)F)C(F)(F)F
activity coefficient (322.6 K): 1.62 ± 0.17 | activity coefficient (332.5 K): 1.47 ± 0.15 | activity coefficient (342.8 K): 1.32 ± 0.14
